Values joined by “and” are separate entries in the source; they are usually repeats but may differ in a detail not shown here. Equal values may be shown once.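 Cells were grown in 96-well plates and exposed to each compound for 48 hours at five concentrations; endpoints were interpolated linearly between bracketing concentrations, or set to the highest concentration if not reached. The concentration for 50% growth inhibition is given as GI50. TGI: total growth inhibition.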
How the values were obtained:
Experiment in all cases: NCI anticancer screen, dose series, 48 h
[1] = test system: DMS 273 small cell lung
[2] = test system: LXFL 529 NSCLC
[3] = test system: M19-MEL melanoma
[4] = test system: DU-145 prostate
[5] = test system: MCF7 breast
[6] = test system: MDA-MB-435
[7] = test system: XF 498 CNS

## C(=C1/CCCCC([n+]2ccccc2)=N1)/c1ccccc1
[1]
  TGI: > 100 µM
[2]
  TGI: > 100 µM
[3]
  TGI: > 100 µM

## O=C(O)CCN1C(=O)/C(=C/C(Cl)=C/c2ccccc2)SC1=S
[4]
  GI50: 3.14 µM
  TGI: 12.4 µM
[5]
  GI50: 1.98 µM
  TGI: 13.1 µM
[6]
  GI50: 2.95 µM
  TGI: 11.6 µM

## O=C(NNc1ccc([N+](=O)[O-])cc1)C1OC(CO)C(O)C1O (centres undefined)
[1]
  TGI: > 100 µM
[2]
  TGI: > 100 µM
[3]
  TGI: > 100 µM
[7]
  TGI: > 100 µM

## C[P+](C)(CC(F)(F)F)c1ccccc1
[1]
  TGI: > 100 µM
[2]
  TGI: > 100 µM
[3]
  TGI: > 100 µM

## Cc1ccc(Nc2ccnc(Nc3cccc(C(N)=O)c3)n2)cc1O
[4]
  GI50: 7.14 µM
  TGI: > 25 µM
[5]
  GI50: 8.28 µM
  TGI: > 25 µM
[6]
  GI50: 7.98 µM
  TGI: > 25 µM

## NC(=O)Cn1c(=O)[nH]c(=O)c2[nH]cnc21
[1]
  TGI: > 100 µM
[2]
  TGI: > 100 µM
[3]
  TGI: > 100 µM

## CC(C)=CCC[C@](C)(O)[C@H]1CC[C@]2(C)[C@@H]1CC[C@@H]1[C@@]3(C)CC[C@H](OC(=O)CCC(=O)O)C(C)(C)[C@@H]3CC[C@]12C
[4]
  GI50: 27.5 µM
  TGI: > 100 µM
[5]
  GI50: 29.3 µM
  TGI: > 100 µM
[6]
  GI50: 29.3 µM
  TGI: > 100 µM

## COc1ccc(/C=C/CO)cc1OC
[1]
  TGI: > 100 µM
[2]
  TGI: > 100 µM
[3]
  TGI: > 100 µM

## Nc1ccccc1C#Cc1ccccc1C#CCCCCO
[4]
  GI50: 28.2 µM
  TGI: > 100 µM
[5]
  GI50: 60.8 µM
  TGI: > 100 µM
[6]
  GI50: 10.3 µM
  TGI: 53.9 µM

## C/C(=N\N=C(N)N)c1sc(-c2nc(C)c(/C(C)=N/N=C(N)N)s2)nc1C
[1]
  TGI: > 100 µM
[2]
  TGI: > 100 µM
[3]
  TGI: > 100 µM
[7]
  TGI: > 100 µM

## Cc1ccc(NC(=O)NC23CC4CC(CC(F)(C4)C2)C3)cc1
[1]
  TGI: > 100 µM
[2]
  TGI: > 100 µM
[3]
  TGI: > 100 µM
[7]
  TGI: > 100 µM

## S=C1OC2C3C4CC5C3C(O1)C1C5C4C21 (centres undefined)
[1]
  TGI: > 100 µM
[2]
  TGI: > 100 µM
[3]
  TGI: > 100 µM

## NC(=O)c1ccc(-c2c3ccccc3cc3c2ccc2ccccc23)cc1
[4]
  GI50: 4.4 µM
  TGI: 26.2 µM
[5]
  GI50: 1.88 µM
  TGI: 11.6 µM
[6]
  GI50: 0.382 µM
  TGI: 3.51 µM

## C/C(=N\n1c(N)c(C#N)c(-c2ccc(Cl)cc2)c(C#N)c1=O)c1cccnc1
[4]
  GI50: > 100 µM
  TGI: > 100 µM
[5]
  GI50: > 100 µM
  TGI: > 100 µM
[6]
  GI50: > 100 µM
  TGI: > 100 µM

## Cc1ccc(S(=O)(=O)ON=C2CC(c3ccccc3)N(C)C(c3ccccc3)C2)cc1 (centres undefined)
[1]
  TGI: 41.4 µM and 56.8 µM
[2]
  TGI: 33.3 µM and 40.3 µM
[3]
  TGI: 53.5 µM and 56.2 µM

## O=c1c2c(=NCCCN3CCCC3)cc3c(=O)n(CCCN4CCCC4)c(=O)c4c(NCCCN5CCCC5)cc(c(O)n1CCCN1CCCC1)c2c4-3
[4]
  GI50: 2.96 µM
  TGI: 7.79 µM
[5]
  GI50: 1.42 µM
  TGI: 10.9 µM
[6]
  GI50: 3.04 µM
  TGI: 11.3 µM

## ClCc1ccc(Cn2cnc3ncnc(Cl)c32)cc1
[5]
  GI50: 1.35 µM
  TGI: 2.94 µM
[6]
  GI50: 5.82 µM
  TGI: 19.2 µM

## CC(C)S(=O)(=O)n1c(N)nc2ccc(/C(=N/O)c3ccccc3)cc21
[1]
  TGI: > 100 µM
[2]
  TGI: > 100 µM
[3]
  TGI: > 100 µM
